Key:
vasopressin V2 receptor = biological target: T1, vasopressin V2 receptor (Rattus norvegicus, UniProt Q00788); test: in vivo assay described in PCT/GB2001/000023 (inhibition of urine output); conditions: at 1 hour; dosed at 1 mg/Kg
T1 construct: from tissue; host or cells: whole animal, in vivo (endogenous receptor)
Source text: The ability of the crystalline form of the invention to agonise the vasopressin V2 receptor may be determined using the in vivo assay described in PCT/GB2001/000023.

[1] = Gravimetric Vapour Sorption Analysis (GVA); type: physicochemical; conditions: amorphous solid prepared as in PCT/GB2001/000023
Source text: 1-(2-methyl-4-(2,3,4,5-tetrahydro-1-benzazepin-1-ylcarbonyl)benzylcarbamoyl)-L-proline-N,N-dimethylamide was first described in international patent application WO 2001/049682 (PCT/GB2001/000023). […] Moreover, scanning electron micrographs (SEM) of this amorphous form show it to consist of irregular, predominantly large (>5 μm in diameter) aggregates. These properties of the amorphous form render it less suitable for use in a manufacturing process.

T1 sequence (Q00788 whole entry): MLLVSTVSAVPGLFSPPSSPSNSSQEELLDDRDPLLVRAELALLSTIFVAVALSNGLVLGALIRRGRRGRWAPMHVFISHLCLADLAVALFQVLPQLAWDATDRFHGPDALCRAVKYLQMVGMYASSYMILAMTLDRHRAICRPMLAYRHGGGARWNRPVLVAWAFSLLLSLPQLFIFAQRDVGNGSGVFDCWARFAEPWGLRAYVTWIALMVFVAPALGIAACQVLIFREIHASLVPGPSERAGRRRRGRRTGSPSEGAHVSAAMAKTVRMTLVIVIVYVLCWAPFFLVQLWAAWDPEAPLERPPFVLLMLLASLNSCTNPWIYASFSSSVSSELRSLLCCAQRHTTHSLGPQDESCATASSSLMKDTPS

inhibition of urine output (vasopressin V2 receptor) [%] | hygroscopicity by Gravimetric Vapour Sorption Analysis (GVA) [1] | Structure (SMILES)
82 |  | Cc1cc(C(=O)N2CCCCc3ccccc32)ccc1CNC(=O)N1CCC[C@H]1C(=O)N(C)C [1-(2-methyl-4-(2,3,4,5-tetrahydro-1-benzazepin-1-ylcarbonyl)benzylcarbamoyl)-L-proline-N,N-dimethylamide]
 | hygroscopic | Cc1cc(C(=O)N2CCCCc3ccccc32)ccc1CNC(=O)N1CCC[C@H]1C(=O)N(C)C [amorphous form, 1-(2-methyl-4-(2,3,4,5-tetrahydro-1-benzazepin-1-ylcarbonyl)benzylcarbamoyl)-L-proline-N,N-dimethylamide]

From patent US9145397B2, “Process for the preparation of 1-(2-methyl-4-(2,3,4,5-tetrahydro-1-benzazepin-1-ylcarbonyl) benzylcarbamoyl)-L-proline-N, N-dimethylamide” (Vantia Limited, priority 2011, dated 2015)
